In patent US11339128B2 (Firmenich Incorporated, priority 2014, dated 2022):

Target: T1, T1R2/T1R3 taste receptor (Homo sapiens, UniProt Q7RTX0+Q8TE23)
T1 sequence (Q8TE23 20-839): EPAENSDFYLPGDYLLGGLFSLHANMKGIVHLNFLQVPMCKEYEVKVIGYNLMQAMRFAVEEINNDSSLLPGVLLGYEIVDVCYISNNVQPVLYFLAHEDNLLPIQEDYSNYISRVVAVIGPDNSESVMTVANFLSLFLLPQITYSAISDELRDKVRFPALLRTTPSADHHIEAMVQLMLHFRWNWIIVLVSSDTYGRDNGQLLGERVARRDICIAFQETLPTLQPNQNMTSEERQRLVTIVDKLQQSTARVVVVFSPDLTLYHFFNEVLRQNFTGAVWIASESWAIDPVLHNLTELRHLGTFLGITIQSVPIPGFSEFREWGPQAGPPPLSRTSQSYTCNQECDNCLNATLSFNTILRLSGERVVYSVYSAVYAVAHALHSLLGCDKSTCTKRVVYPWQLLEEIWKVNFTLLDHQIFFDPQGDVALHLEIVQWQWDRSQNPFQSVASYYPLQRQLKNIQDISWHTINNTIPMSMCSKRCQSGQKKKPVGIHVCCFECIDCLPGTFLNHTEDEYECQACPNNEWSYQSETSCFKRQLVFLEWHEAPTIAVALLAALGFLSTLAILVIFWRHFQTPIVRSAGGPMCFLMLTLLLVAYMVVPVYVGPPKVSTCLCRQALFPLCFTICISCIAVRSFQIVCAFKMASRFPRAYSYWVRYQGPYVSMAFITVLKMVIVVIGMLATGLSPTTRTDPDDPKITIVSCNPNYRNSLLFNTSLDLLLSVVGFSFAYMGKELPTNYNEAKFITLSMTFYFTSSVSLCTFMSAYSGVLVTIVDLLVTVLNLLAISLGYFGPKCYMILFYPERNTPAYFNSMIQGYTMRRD
T1 sequence (Q7RTX0 21-852): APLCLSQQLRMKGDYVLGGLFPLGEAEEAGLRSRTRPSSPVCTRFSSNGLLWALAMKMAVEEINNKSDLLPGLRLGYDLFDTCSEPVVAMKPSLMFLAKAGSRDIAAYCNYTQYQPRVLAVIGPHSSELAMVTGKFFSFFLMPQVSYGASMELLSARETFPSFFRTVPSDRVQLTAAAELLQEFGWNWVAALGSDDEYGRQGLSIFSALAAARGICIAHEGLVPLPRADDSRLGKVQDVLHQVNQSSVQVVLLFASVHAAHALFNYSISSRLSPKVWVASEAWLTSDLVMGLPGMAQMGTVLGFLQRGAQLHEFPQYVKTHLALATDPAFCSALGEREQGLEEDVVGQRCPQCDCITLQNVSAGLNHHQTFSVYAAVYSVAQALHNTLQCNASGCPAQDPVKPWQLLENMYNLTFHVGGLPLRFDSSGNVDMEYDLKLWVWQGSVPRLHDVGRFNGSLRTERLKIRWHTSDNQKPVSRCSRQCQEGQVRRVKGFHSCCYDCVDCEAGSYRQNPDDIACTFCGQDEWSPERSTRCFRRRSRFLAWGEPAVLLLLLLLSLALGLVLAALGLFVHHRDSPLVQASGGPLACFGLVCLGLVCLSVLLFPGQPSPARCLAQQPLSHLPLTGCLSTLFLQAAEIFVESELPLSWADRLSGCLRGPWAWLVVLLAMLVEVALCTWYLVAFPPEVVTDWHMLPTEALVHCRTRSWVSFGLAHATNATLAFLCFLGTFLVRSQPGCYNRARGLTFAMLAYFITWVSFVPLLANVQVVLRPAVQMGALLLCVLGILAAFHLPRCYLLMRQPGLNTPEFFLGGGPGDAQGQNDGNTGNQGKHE
Assay: Receptor-based assay: sweetener EC50 enhancement ratio with and without test compound
Assay type: cell-based
Settings: for Sucrose Enhancement EC50 Ratio: sweetener sucrose; for Sucralose Enhancement EC50 Ratio: sweetener sucralose
Procedure: Potencies (EC50 values) for the sweeteners sucrose, sucralose, and fructose were measured against the T1R2/T1R3 taste receptor. EC50 was determined using the sweetener alone and in the presence of 1 μM, 3 μM, 10 μM, or 50 μM of test compound. EC50 ratios were calculated by the ratio of potency with and without the test compound. An “A” value indicates an enhancement ratio of greater than 1 and less than 10. A “B” value indicates an enhancement ratio from 10 to 20. A “C” value indicates an enhancement ratio greater than 20.

Sucralose Enhancement EC50 Ratio (3 μM test compound)	Structure (SMILES)	Sucrose Enhancement EC50 Ratio (1 μM test compound)	Sucrose Enhancement EC50 Ratio (3 μM test compound)	Sucrose Enhancement EC50 Ratio (10 μM test compound)	Sucralose Enhancement EC50 Ratio (10 μM test compound)
–	Cc1nc2cccc(O[C@H]3CC[C@@H](C)CC3)c2c(N)c1C(=O)O [Compound 102]	A (an enhancement ratio of greater than 1 and less than 10)	A (an enhancement ratio of greater than 1 and less than 10)	B (an enhancement ratio from 10 to 20)	–
–	Cc1nc2cccc(OC3CCC(C)(C)CC3)c2c(N)c1C(=O)O [Compound 103]	C (an enhancement ratio greater than 20)	C (an enhancement ratio greater than 20)	–	–
–	Cc1nc2cccc(O[C@H]3CC[C@H](C(C)(C)C)CC3)c2c(N)c1C(=O)O [Compound 104]	A (an enhancement ratio of greater than 1 and less than 10)	C (an enhancement ratio greater than 20)	–	–
–	CO[C@H]1CC[C@H](Oc2cccc3nc(C)c(C(=O)O)c(N)c23)CC1 [Compound 105]	A (an enhancement ratio of greater than 1 and less than 10)	A (an enhancement ratio of greater than 1 and less than 10)	C (an enhancement ratio greater than 20)	–
–	CO[C@H]1CC[C@@H](Oc2cccc3nc(C)c(C(=O)O)c(N)c23)CC1 [Compound 106]	A (an enhancement ratio of greater than 1 and less than 10)	A (an enhancement ratio of greater than 1 and less than 10)	A (an enhancement ratio of greater than 1 and less than 10)	–
–	Cc1nc2cccc(O[C@H]3CC[C@H](O)CC3)c2c(N)c1C(=O)O [Compound 107]	A (an enhancement ratio of greater than 1 and less than 10)	A (an enhancement ratio of greater than 1 and less than 10)	B (an enhancement ratio from 10 to 20)	–
–	Cc1nc2cccc(O[C@H]3CC[C@@H](O)CC3)c2c(N)c1C(=O)O [Compound 108]	A (an enhancement ratio of greater than 1 and less than 10)	A (an enhancement ratio of greater than 1 and less than 10)	A (an enhancement ratio of greater than 1 and less than 10)	–
–	Cc1nc2cccc(O[C@H]3CC[C@H](CO)CC3)c2c(N)c1C(=O)O [Compound 109]	B (an enhancement ratio from 10 to 20)	C (an enhancement ratio greater than 20)	C (an enhancement ratio greater than 20)	–
–	CCc1nc2cccc(OC3CCCCC3)c2c(N)c1C(=O)O [Compound 200]	A (an enhancement ratio of greater than 1 and less than 10)	A (an enhancement ratio of greater than 1 and less than 10)	A (an enhancement ratio of greater than 1 and less than 10)	–
–	CCc1nc2cccc(O[C@H]3CC[C@@H](C)CC3)c2c(N)c1C(=O)O [Compound 202]	A (an enhancement ratio of greater than 1 and less than 10)	A (an enhancement ratio of greater than 1 and less than 10)	A (an enhancement ratio of greater than 1 and less than 10)	–
–	CCc1nc2cccc(OC3CCC(C)(C)CC3)c2c(N)c1C(=O)O [Compound 203]	A (an enhancement ratio of greater than 1 and less than 10)	A (an enhancement ratio of greater than 1 and less than 10)	B (an enhancement ratio from 10 to 20)	–
–	CCc1nc2cccc(O[C@H]3CC[C@H](C(C)(C)C)CC3)c2c(N)c1C(=O)O [Compound 204]	A (an enhancement ratio of greater than 1 and less than 10)	A (an enhancement ratio of greater than 1 and less than 10)	A (an enhancement ratio of greater than 1 and less than 10)	–
–	CCc1nc2cccc(O[C@H]3CC[C@H](COC)CC3)c2c(N)c1C(=O)O [Compound 205]	A (an enhancement ratio of greater than 1 and less than 10)	B (an enhancement ratio from 10 to 20)	B (an enhancement ratio from 10 to 20)	B (an enhancement ratio from 10 to 20)
–	CCc1nc2cccc(O[C@H]3CC[C@H](CO)CC3)c2c(N)c1C(=O)O [Compound 206]	A (an enhancement ratio of greater than 1 and less than 10)	A (an enhancement ratio of greater than 1 and less than 10)	A (an enhancement ratio of greater than 1 and less than 10)	–
–	CCCc1nc2cccc(O[C@H]3CC[C@H](C)CC3)c2c(N)c1C(=O)O [Compound 207]	A (an enhancement ratio of greater than 1 and less than 10)	A (an enhancement ratio of greater than 1 and less than 10)	A (an enhancement ratio of greater than 1 and less than 10)	–
–	CCCc1nc2cccc(OC3CCC(C)(C)CC3)c2c(N)c1C(=O)O [Compound 208]	A (an enhancement ratio of greater than 1 and less than 10)	A (an enhancement ratio of greater than 1 and less than 10)	A (an enhancement ratio of greater than 1 and less than 10)	–
B (an enhancement ratio from 10 to 20)	Cc1nc2cccc(O[C@H]3CC[C@H](NC(=O)COCC(C)(C)C)CC3)c2c(N)c1C(=O)O [Compound 301, 4-Amino-2-methyl-5-((trans-4-(2-(neopentyloxy)acetamido)cyclohexyl)oxy) quinoline-3-carboxylic acid]	B (an enhancement ratio from 10 to 20)	B (an enhancement ratio from 10 to 20)	–	–
–	Cc1nc2cccc(O[C@H]3CC[C@H](N)CC3)c2c(N)c1C(=O)O.Cl [Compound 302, 4-Amino-5-((trans-4-aminocyclohexyl)oxy)-2-methylquinoline-3-carboxylic acid (HCl salt)]	A (an enhancement ratio of greater than 1 and less than 10)	A (an enhancement ratio of greater than 1 and less than 10)	–	–
–	Cc1nc2cccc(O[C@H]3CC[C@H](NC(=O)CO)CC3)c2c(N)c1C(=O)O [Compound 303]	A (an enhancement ratio of greater than 1 and less than 10)	A (an enhancement ratio of greater than 1 and less than 10)	B (an enhancement ratio from 10 to 20)	A (an enhancement ratio of greater than 1 and less than 10)
–	COCC(=O)N[C@H]1CC[C@H](Oc2cccc3nc(C)c(C(=O)O)c(N)c23)CC1 [Compound 304]	A (an enhancement ratio of greater than 1 and less than 10)	B (an enhancement ratio from 10 to 20)	A (an enhancement ratio of greater than 1 and less than 10)	–
–	Cc1nc2cccc(O[C@H]3CC[C@H](NC(=O)COC(C)(C)C)CC3)c2c(N)c1C(=O)O [Compound 308]	B (an enhancement ratio from 10 to 20)	–	–	–
